Test results from article PMC6247892, “Ficus sycomorus latex: An efficient alternative Egyptian source for horseradish peroxidase in labeling with antibodies for immunodiagnostic kits” (Veterinary World, 2018).
Structures can show the parent of a compound that is named as a salt. Where two headings read alike, the source gives them in different places. One block for each molecule: values may come before it.

Tested on: POL (peroxidase of sycamore fig latex)
Test: spectrophotometric peroxidase assay, substrate variation
Type: biochemical, Ficus sycomorus
Settings: co-substrate H2O2, free enzyme, standard assay pH 5.5, room temperature (28-30°C)
Description: spectrophotometric peroxidase assay, substrate variation on POL (peroxidase of sycamore fig latex)

SMILES: Cc1cc(-c2cc(C)c(N)c(C)c2)cc(C)c1N [3,3`,5,5`tetramethylbenzidine]
Km (read-out: Km (mM substrates) / TMB): 7 ± 0.8 mM

Km (read-out: Km (mM substrates) / 4C-1N): 5 ± 0.6 mM
SMILES: Oc1ccc(Cl)c2ccccc12 [4-chloro-1-naphthol]

Km (read-out: Km (mM substrates) / ABTS): 4.5 ± 0.5 mM
SMILES: CCn1c(=NN=c2sc3cc(S(=O)(=O)O)ccc3n2CC)sc2cc(S(=O)(=O)O)ccc21 [ABTS]

SMILES: Nc1ccccc1N [o-phenylenediamine dihydrochloride]
Km (read-out: Km (mM substrates) / OPD): 5.8 ± 0.4 mM
